The values below come from patent US8410178B2, “CIS 3,4-dihydroxy-2-(3-methylbutanoyl)-5-(3-methylbutyl)-4-(4-methylpentanoyl)cyclopent-2-en-1-derivatives, substantially enantiomerically pure compositions and methods” (KinDex Therapeutics, LLC, priority 2010, dated 2013).

One assay addresses T1, PPARα (Homo sapiens, UniProt Q07869).
T1 sequence (Q07869 1-468): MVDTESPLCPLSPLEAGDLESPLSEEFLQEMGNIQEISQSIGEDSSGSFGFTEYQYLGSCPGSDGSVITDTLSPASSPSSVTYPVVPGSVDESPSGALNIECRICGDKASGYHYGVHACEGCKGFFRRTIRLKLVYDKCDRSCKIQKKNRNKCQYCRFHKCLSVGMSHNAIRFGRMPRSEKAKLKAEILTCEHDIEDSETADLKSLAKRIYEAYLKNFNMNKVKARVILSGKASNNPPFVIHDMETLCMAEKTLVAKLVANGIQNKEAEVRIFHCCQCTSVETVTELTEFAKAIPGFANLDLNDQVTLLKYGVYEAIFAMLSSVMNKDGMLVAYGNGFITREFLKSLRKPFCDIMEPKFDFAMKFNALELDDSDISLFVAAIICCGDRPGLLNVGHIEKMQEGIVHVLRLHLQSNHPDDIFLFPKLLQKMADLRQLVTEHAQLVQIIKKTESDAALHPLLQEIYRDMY
The assay can be described thus: PPARα luciferase reporter assay. The format is cell-based. The note with it: reporter cells, 20 hours. The method, then: (§1) The functional effect of (+)-KDT501 on PPARα, PPARδ, and PPARγ activity was evaluated using a PPAR reporter assay (INDIGO Biosciences, PA). This assay utilizes non-human mammalian cells engineered to provide constitutive high level expression of PPARα, PPARδ, or PPARγ and containing a luciferase report gene specific to the appropriate PPAR. Following activation by agonist binding, PPAR induces expression of the luciferase reporter gene. Luciferase activity therefore provides a surrogate for measuring PPAR activity in agonist-treated cells.
(§2) Reporter cells were plated on a 96-well plate at 100 μL per well, and 100 μL of (+)-KDT501 at various final concentrations (25, 12.5, 6.25, 3.125, 1.56 and 0.78 μM) was added to each well. […] 0.1% DMSO was also used as a negative control for each assay. Plates are incubated for 20 hours in a humidified incubator at 37° C. and 5% CO2. After incubation, cell medium was discarded and the cells were treated with 100 μL of luciferase detection reagent for 15 minutes. Plates were analyzed using a luminometer (Victor2, Perkin Elmer). Average relative light unit (RLU) and standard deviation were analyzed using GraphPad Prism.
(In a reporter assay the amount or activity of a reporter protein is the signal.)

The next assay has as its target T2, PPARδ (Homo sapiens, UniProt Q03181).
T2 sequence (Q03181 1-441): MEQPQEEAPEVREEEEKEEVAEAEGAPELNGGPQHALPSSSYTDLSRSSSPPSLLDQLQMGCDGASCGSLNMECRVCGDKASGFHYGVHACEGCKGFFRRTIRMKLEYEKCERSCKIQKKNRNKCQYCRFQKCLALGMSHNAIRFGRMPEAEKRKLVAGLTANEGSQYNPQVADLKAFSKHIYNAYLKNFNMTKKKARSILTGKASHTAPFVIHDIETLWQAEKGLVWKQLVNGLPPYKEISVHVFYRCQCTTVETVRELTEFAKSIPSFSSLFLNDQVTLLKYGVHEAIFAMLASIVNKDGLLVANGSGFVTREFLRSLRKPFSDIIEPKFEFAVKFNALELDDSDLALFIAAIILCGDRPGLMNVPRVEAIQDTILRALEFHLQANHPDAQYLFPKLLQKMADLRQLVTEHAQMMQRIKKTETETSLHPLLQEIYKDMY
The assay is described as follows: PPARδ luciferase reporter assay. In kind it is cell-based. The note with it: reporter cells, 20 hours. How it is done: as §1, §2

Another assay deals with 3T3-L1 adipocytes. The assay is described as follows: Lipogenesis in 3T3-L1 adipocytes (Oil Red O staining). In kind it is cell-based, Murine. How it is done: The effect of (+)-KDT501 on lipogenesis was evaluated in 3T3-L1 adipocytes.
Murine 3T3-L1 preadipocytes (ATCC, Rockville, Md.) were maintained in DMEM (Invitrogen, Rockville, Md.) supplemented with 10% fetal bovine serum (FBS; ATCC). As preadipocytes, 3T3-L1 cells have a fibroblastic appearance. They replicate in culture until they form a confluent monolayer, after which cell-cell contact triggers G0/G1 growth arrest. Subsequent stimulation with 3-isobutyl-1-methylxanthane, dexamethasone, and high does of insulin for two days prompts the cells to undergo post-confluent mitotic clonal expansion, exit the cell cycle, and begin to express adipocyte-specific genes. Approximately five days after induction of differentiation, the cells display the characteristic lipid-filled adipocyte phenotype.
Cells were seeded at an initial density of approximately […] in 24-well plates and allowed to grow for 2 days to confluence. […]
Microscopic evaluation was performed at day 0 and every two days throughout testing to assess preadipocyte differentiation to adipocyte morphology. Intracellular lipid was quantified with Oil Red O staining. […] 150 μL of sample was transferred to a 96 well plate and absorbance was measured at 530 nm using a plate reader (Thermo Electron Corp.). […]

The target of assay [1] is T3, angiotensin II receptor type II (AGTR2) (Homo sapiens, UniProt P50052).
T3 sequence (P50052 1-363): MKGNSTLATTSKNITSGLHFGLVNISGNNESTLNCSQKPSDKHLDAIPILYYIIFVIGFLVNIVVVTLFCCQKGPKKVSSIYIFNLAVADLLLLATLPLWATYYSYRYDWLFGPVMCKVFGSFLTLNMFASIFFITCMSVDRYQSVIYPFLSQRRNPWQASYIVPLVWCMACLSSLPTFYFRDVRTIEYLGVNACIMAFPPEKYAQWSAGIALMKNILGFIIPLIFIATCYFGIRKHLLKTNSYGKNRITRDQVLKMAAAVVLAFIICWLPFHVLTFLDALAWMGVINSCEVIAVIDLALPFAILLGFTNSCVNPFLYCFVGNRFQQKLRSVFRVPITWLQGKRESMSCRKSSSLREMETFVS
The assay is described as follows: Competitive binding to AGTR2 ([125I]CGP 42112A). The settings on record: binding target AGTR2; competitor ligand Angiotensin-II.

The IC50 is the concentration that gives 50% inhibition. Broadly, the Ki is a measure of affinity in units of concentration, obtained from inhibition or displacement. `CC(C)CCC(=O)[C@@]1(O)C(O)=C(C(=O)CC(C)C)C(=O)[C@@H]1CCC(C)C.[K]` [(+)-KDT501, (+)-(4S,5R)-3,4-dihydroxy-2-(3-methylbutanoyl)-5-(3-methylbutyl)-4-(4-methylpentanoyl)cyclopent-2-en-1-one potassium salt]: the PPARα activity entry on PPARα is recorded as “little or no effect”. Also, the PPARδ activity entry on PPARδ is on record as “little or no effect”. Also, in the assay on 3T3-L1 adipocytes (3T3-L1 adipocytes, 6.25, 12.5, and 25 μM), the “lipogenesis (intracellular lipid, Oil Red O)” value is “increased lipogenesis in 3T3-L1 adipocytes in a statistically significant manner”. For the same molecule, the adipogenesis result in the assay on 3T3-L1 adipocytes (3T3-L1 murine fibroblast model) is “induce both lipogenesis and adipogenesis in a dose-dependent manner”. In assay [1], this molecule had an IC50 of 14 µM, a Ki of 7.1 µM and a nH of 1.4.
